The Ki is a measure of affinity in units of concentration, obtained from inhibition or displacement.

Chain of 5-hydroxytryptamine receptor 1B (P28564 whole entry): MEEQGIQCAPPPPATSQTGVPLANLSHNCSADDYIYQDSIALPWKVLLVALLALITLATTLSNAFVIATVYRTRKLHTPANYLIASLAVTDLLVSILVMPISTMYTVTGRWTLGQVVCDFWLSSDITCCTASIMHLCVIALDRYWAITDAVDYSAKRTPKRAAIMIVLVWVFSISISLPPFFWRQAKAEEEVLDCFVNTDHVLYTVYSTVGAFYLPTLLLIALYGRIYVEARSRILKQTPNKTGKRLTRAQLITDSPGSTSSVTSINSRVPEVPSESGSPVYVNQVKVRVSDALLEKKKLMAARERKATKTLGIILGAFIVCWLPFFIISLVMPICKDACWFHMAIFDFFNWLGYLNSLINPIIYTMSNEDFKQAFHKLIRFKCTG

The target in one series is T1, B2 bradykinin receptor (Homo sapiens, UniProt P30411). Note: in other assays of this panel Not Active means under 50% inhibition at 10 µM.
T1 sequence (P30411 whole entry): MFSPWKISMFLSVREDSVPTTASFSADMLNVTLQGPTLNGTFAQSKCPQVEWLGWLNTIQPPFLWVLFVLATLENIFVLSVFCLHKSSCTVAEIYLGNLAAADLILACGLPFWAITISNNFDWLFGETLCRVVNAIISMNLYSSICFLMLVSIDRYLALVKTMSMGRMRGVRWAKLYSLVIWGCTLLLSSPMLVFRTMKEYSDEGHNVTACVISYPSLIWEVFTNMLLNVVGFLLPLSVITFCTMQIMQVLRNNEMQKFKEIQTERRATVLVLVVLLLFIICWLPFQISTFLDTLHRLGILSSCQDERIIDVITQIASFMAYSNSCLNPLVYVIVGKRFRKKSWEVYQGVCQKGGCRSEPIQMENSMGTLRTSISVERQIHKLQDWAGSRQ
In kind it is cell membranes, Membrane. The note with it: chem-1.
With `C[C@@H]1O[C@@H](O[C@@H]2C=C3CC[C@@H]4[C@H](CC[C@]5(C)[C@@H](c6ccc(=O)oc6)CC[C@]45O)[C@@]3(C)CC2)[C@H](O)[C@H](O)[C@H]1O` [PROSCILLARIDIN], the IC50 entry is reported as “Not Active”.

Regarding `Oc1cccc(O)c1O` [PYROGALLOL], the IC50 result is recorded as “Not Active”.

Consider AURANOFIN, for which the IC50 entry is on record as “Not Active” and the Ki result was “Not Active”.

Turning to GADOPENTETATE DIMEGLUMINE, the IC50 entry is recorded as “Not Active” and the inhibition constant (Ki) entry is on record as “Not Active”.

Regarding GENTAMICIN, the IC50 result is listed as “Not Active” and the inhibitory constant (Ki) entry is recorded as “Not Active”.

For the compound GRAMICIDIN, the IC50 result is “Not Active” and the Ki result was “Not Active”.

The target of another series is T2, Glucocorticoid receptor (Homo sapiens, UniProt P04150). Note: in other assays of this panel Not Active means under 50% inhibition at 10 µM.
T2 sequence (P04150 whole entry): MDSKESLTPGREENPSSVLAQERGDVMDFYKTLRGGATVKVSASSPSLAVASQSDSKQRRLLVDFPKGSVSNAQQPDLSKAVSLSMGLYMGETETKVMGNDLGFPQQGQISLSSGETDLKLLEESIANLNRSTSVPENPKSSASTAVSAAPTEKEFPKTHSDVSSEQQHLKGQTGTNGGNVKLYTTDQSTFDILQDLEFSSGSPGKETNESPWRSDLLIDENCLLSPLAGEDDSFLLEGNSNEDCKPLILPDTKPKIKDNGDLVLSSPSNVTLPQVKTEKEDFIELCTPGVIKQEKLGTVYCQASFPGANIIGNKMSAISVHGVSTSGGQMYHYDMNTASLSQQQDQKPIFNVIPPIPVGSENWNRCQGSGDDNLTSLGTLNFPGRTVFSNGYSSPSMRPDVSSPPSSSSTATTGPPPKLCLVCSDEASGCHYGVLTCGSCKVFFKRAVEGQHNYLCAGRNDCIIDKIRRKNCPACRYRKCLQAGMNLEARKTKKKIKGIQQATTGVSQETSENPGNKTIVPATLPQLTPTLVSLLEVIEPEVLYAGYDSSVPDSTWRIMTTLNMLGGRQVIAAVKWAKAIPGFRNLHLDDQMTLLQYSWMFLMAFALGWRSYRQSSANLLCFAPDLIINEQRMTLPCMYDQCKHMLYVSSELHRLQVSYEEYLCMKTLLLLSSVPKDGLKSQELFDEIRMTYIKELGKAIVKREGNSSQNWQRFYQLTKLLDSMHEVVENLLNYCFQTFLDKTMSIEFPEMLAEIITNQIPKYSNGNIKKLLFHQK
The note with it: hela s3.
For `C[C@@H]1O[C@@H](O[C@@H]2C=C3CC[C@@H]4[C@H](CC[C@]5(C)[C@@H](c6ccc(=O)oc6)CC[C@]45O)[C@@]3(C)CC2)[C@H](O)[C@H](O)[C@H]1O` [PROSCILLARIDIN], the IC50 entry is reported as “Not Active”.

`Oc1cccc(O)c1O` [PYROGALLOL]: the IC50 result is on record as “Not Active”.

For AURANOFIN, the affinity corresponds to a Ki of 599 nM.

For GADOPENTETATE DIMEGLUMINE, the IC50 entry is reported as “Not Active” and the Ki entry is “Not Active”.

Turning to GENTAMICIN, the IC50 entry is recorded as “Not Active” and the Ki result is recorded as “Not Active”.

On to GRAMICIDIN, for which the IC50 result is on record as “Not Active” and the Ki result is reported as “Not Active”.

Test system in the next series: not listed separately
The series can be described thus: DRUGMATRIX: Calcium Channel Type L, Dihydropyridine radioligand binding (ligand: [3H] Nitrendipine). In kind it is cell membranes, Rattus norvegicus, Wistar, Cerebral cortex, Membrane. The note with it: Not Active = under 50% inhibition at 10 µM.
Consider `C[C@@H]1O[C@@H](O[C@@H]2C=C3CC[C@@H]4[C@H](CC[C@]5(C)[C@@H](c6ccc(=O)oc6)CC[C@]45O)[C@@]3(C)CC2)[C@H](O)[C@H](O)[C@H]1O` [PROSCILLARIDIN], for which the IC50 result was “Not Active” and the Ki result is reported as “Not Active”.

Take `Oc1cccc(O)c1O` [PYROGALLOL]: the IC50 result is “Not Active” and the Ki entry was “Not Active”.

For the compound AURANOFIN, the IC50 entry is reported as “Not Active” and the Ki entry is “Not Active”.

Regarding GADOPENTETATE DIMEGLUMINE, the IC50 entry is “Not Active” and the inhibitory constant (Ki) entry is recorded as “Not Active”.

Regarding GENTAMICIN, the IC50 entry is recorded as “Not Active” and the inhibitory constant (Ki) entry is given as “Not Active”.

Take GRAMICIDIN: the IC50 result was “Not Active” and the Ki entry is reported as “Not Active”.

A further series addresses 5-hydroxytryptamine receptor 1B (Rattus norvegicus, UniProt P28564). In kind it is cell membranes, Wistar, Cerebral cortex, Membrane.
Settings: not given
On to `C[C@@H]1O[C@@H](O[C@@H]2C=C3CC[C@@H]4[C@H](CC[C@]5(C)[C@@H](c6ccc(=O)oc6)CC[C@]45O)[C@@]3(C)CC2)[C@H](O)[C@H](O)[C@H]1O` [PROSCILLARIDIN], for which the IC50 result is on record as “Not Active”.

`Oc1cccc(O)c1O` [PYROGALLOL]: the IC50 result is listed as “Not Active”.

For AURANOFIN, the IC50 result is reported as “Not Active” and the Ki entry was “Not Active”.

For GADOPENTETATE DIMEGLUMINE, the IC50 result is “Not Active” and the Ki result is “Not Active”.

Consider GENTAMICIN, for which the IC50 entry is “Not Active” and the Ki result is given as “Not Active”.

As for GRAMICIDIN, the IC50 entry was “Not Active” and the Ki entry is “Not Active”.

The next series has as its target T3, Cytochrome P450 2A6 (Homo sapiens, UniProt P11509). Note: in other assays of this panel Not Active means under 50% inhibition at 10 µM.
T3 sequence (P11509 whole entry): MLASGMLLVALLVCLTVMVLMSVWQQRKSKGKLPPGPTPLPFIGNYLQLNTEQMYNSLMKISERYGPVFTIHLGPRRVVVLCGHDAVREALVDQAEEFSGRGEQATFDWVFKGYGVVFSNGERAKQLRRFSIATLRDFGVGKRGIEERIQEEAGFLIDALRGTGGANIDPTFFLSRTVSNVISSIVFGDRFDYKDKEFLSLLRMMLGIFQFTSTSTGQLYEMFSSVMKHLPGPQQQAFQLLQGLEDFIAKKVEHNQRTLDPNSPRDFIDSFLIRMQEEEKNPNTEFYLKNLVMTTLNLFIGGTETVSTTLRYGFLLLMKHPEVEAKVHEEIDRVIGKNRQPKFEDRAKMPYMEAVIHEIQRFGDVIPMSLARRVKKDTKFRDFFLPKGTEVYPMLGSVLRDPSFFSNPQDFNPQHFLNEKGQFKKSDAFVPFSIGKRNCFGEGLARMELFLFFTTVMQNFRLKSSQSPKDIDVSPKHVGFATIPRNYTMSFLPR
The note with it: bti-tn-5b1-4.
In the case of `C[C@@H]1O[C@@H](O[C@@H]2C=C3CC[C@@H]4[C@H](CC[C@]5(C)[C@@H](c6ccc(=O)oc6)CC[C@]45O)[C@@]3(C)CC2)[C@H](O)[C@H](O)[C@H]1O` [PROSCILLARIDIN], the IC50 result is “Not Active” and the Ki entry is reported as “Not Active”.

As for `Oc1cccc(O)c1O` [PYROGALLOL], the IC50 result is reported as “Not Active” and the Ki entry was “Not Active”.

AURANOFIN: the IC50 result is “Not Active” and the Ki result is “Not Active”.

Consider GADOPENTETATE DIMEGLUMINE, for which the IC50 entry is on record as “Not Active” and the inhibition constant (Ki) result is “Not Active”.

With GENTAMICIN, the IC50 result is “Not Active” and the Ki entry was “Not Active”.

In the case of GRAMICIDIN, the IC50 entry was “Not Active” and the Ki result was “Not Active”.

Test system in the next series: not listed separately
The series can be described thus: DRUGMATRIX: Sigma2 radioligand binding (ligand: [3H] Ifenprodil). The series is classed as cell membranes, Rattus norvegicus, Wistar, Brain, Membrane. The note with it: Not Active = under 50% inhibition at 10 µM.
Consider `C[C@@H]1O[C@@H](O[C@@H]2C=C3CC[C@@H]4[C@H](CC[C@]5(C)[C@@H](c6ccc(=O)oc6)CC[C@]45O)[C@@]3(C)CC2)[C@H](O)[C@H](O)[C@H]1O` [PROSCILLARIDIN], for which the IC50 entry is “Not Active” and the Ki result is given as “Not Active”.

For the compound `Oc1cccc(O)c1O` [PYROGALLOL], the IC50 result is given as “Not Active” and the inhibition constant Ki result is “Not Active”.

As to AURANOFIN, the IC50 result is given as “Not Active” and the Ki entry is “Not Active”.

Turning to GADOPENTETATE DIMEGLUMINE, the IC50 entry is listed as “Not Active” and the Ki result is given as “Not Active”.

Regarding GENTAMICIN, the IC50 result is recorded as “Not Active” and the Ki entry is “Not Active”.

In the case of GRAMICIDIN, the IC50 entry is “Not Active” and the Ki entry was “Not Active”.

In the next series the target is Protein kinase C alpha type (Homo sapiens, UniProt P17252). The series is classed as cell-based. The note with it: sf9.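 Note: inhibition of PKCalpha kinase activity measured in an enzyme assay with histone as the phosphorylation substrate; in other assays of this panel Not Active means under 50% inhibition at 10 µM.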
Take `C[C@@H]1O[C@@H](O[C@@H]2C=C3CC[C@@H]4[C@H](CC[C@]5(C)[C@@H](c6ccc(=O)oc6)CC[C@]45O)[C@@]3(C)CC2)[C@H](O)[C@H](O)[C@H]1O` [PROSCILLARIDIN]: the IC50 result is “Not Active”.

`Oc1cccc(O)c1O` [PYROGALLOL]: the IC50 result is listed as “Not Active”.

Turning to AURANOFIN, the IC50 entry was “Not Active” and the Ki entry was “Not Active”.

As to GADOPENTETATE DIMEGLUMINE, the IC50 result was “Not Active” and the Ki entry is given as “Not Active”.

As to GENTAMICIN, the IC50 result is listed as “Not Active” and the Ki result is on record as “Not Active”.

GRAMICIDIN: the IC50 result is reported as “Not Active” and the Ki entry is “Not Active”.

Test system in the next series: not listed separately
The series can be described thus: DRUGMATRIX: Nicotinic Acetylcholine radioligand binding (ligand: [125I] Epibatidine). The series is classed as cell membranes, Membrane. The note with it: imr-32; Not Active = under 50% inhibition at 10 µM.
`C[C@@H]1O[C@@H](O[C@@H]2C=C3CC[C@@H]4[C@H](CC[C@]5(C)[C@@H](c6ccc(=O)oc6)CC[C@]45O)[C@@]3(C)CC2)[C@H](O)[C@H](O)[C@H]1O` [PROSCILLARIDIN]: the IC50 result is “Not Active” and the inhibition constant (Ki) entry was “Not Active”.

With `Oc1cccc(O)c1O` [PYROGALLOL], the IC50 entry is reported as “Not Active” and the Ki result is reported as “Not Active”.

In the case of AURANOFIN, the IC50 entry is “Not Active” and the Ki result is given as “Not Active”.

For GADOPENTETATE DIMEGLUMINE, the IC50 entry is “Not Active” and the Ki result was “Not Active”.

Turning to GENTAMICIN, the IC50 result is listed as “Not Active” and the Ki result is “Not Active”.

As for GRAMICIDIN, the IC50 result is on record as “Not Active” and the Ki result is “Not Active”.
